One data set concerns the target CYP3A4 (Homo sapiens, UniProt P08684). Nature of the data set: Cytochrome P450 (CYP450) Inhibition Assay, CYP3A4 (Vivid fluorescence, BOMCC substrate). To be noted: human, P450 Baculosomes (recombinant CYP3A4), probe BOMCC (Vivid substrate).
Another data set concerns sodium channel. Nature of the data set: Guanidine influx assay (14C-guanidine radiotracer flux, in vitro). To be noted: guanidine influx assay using a known cell line that expresses a sodium channel. It is filed as cell-based, human or rat. The gist of the method: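 Cells stably expressing human or rat sodium channels (~100,000/well, 20–24 h) were exposed in low-sodium choline buffer to test agent plus aconitine activator and 14C-guanidine at ambient temperature. Intracellular 14C-guanidine was counted by scintillation; IC50 fitted by 4-parameter logistic over half-dilutions around 1 μM.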

Here are results for 24 compounds from patent US8263606B2 (Xenon Pharmaceuticals Inc., priority 2008, dated 2012).

Chain of CYP3A4 (P08684 whole entry): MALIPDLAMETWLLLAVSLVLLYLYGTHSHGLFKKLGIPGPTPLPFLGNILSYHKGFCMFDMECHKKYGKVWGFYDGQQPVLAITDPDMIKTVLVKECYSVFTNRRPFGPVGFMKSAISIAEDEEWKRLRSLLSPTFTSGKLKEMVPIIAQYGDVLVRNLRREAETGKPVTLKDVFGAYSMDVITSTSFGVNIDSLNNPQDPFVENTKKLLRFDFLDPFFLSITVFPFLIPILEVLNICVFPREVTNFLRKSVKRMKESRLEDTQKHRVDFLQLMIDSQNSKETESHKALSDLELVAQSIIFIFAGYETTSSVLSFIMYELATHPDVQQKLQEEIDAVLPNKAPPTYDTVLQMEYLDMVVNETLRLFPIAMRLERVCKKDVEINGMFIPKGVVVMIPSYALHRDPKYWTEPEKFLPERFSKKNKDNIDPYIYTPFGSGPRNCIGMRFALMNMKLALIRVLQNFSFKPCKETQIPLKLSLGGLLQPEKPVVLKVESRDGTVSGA

`Cc1c(F)cccc1NC(=O)c1ccc(CN2C(=O)C3(COc4cc5c(cc43)CCO5)c3ccccc32)cc1` (stereo not drawn) [Example 12.44, N-(3-fluoro-2-methylphenyl)-4-[(2′-oxo-5,6-dihydrospiro[benzo[1,2-b:5,4-b′]difuran-3,3′-indol]-1′(2′H)-yl)methyl]benzamide] showed a melting point of 143 to 144 °C. In addition, the inhibition at 10 µM at CYP3A4 was less than 50%. Also, in the data set on sodium channel, the half-inhibitory concentration (IC50) is 1000 to 10000 nM.

As to `CCC(CC)CNC(=O)c1ccc(CN2C(=O)C3(COc4cc5c(cc43)CCO5)c3ccccc32)cc1` (stereo not drawn) [Example 12.45, N-(2-ethylbutyl)-4-[(2′-oxo-5,6-dihydrospiro[benzo[1,2-b:5,4-b′]difuran-3,3′-indol]-1′(2′H)-yl)methyl]benzamide], the melting point lay in the range of 211 to 213 °C. Also, at CYP3A4, the inhibition at 10 µM was less than 50%. Besides, in the data set with sodium channel, the IC50 was 1000 to 10000 nM.

`CC(C)(C)CCNC(=O)CN1C(=O)C2(COc3cc4c(cc32)CCO4)c2ccccc21` (stereo not drawn) [Example 12.49, N-(3,3-dimethylbutyl)-2-(2′-oxo-5,6-dihydrospiro[benzo[1,2-b:5,4-b′]difuran-3,3′-indol]-1′(2′H)-yl)acetamide] showed a melting point of 161 to 163 °C. Moreover, the inhibition at 10 µM on CYP3A4 was greater than 50%. The half-maximal inhibitory concentration (IC50) in the data set with sodium channel is 100 to 1000 nM.

The compound `CC(C)OCCCNC(=O)CN1C(=O)C2(COc3cc4c(cc32)CCO4)c2ccccc21` (stereo not drawn) [Example 12.50, N-[3-(1-methylethoxy)propyl]-2-(2′-oxo-5,6-dihydrospiro[benzo[1,2-b:5,4-b′]difuran-3,3′-indol]-1′(2′H)-yl)acetamide] had a melting point of 149 to 151 °C. Also, at CYP3A4, the inhibition at 10 µM is greater than 50%. Further, the IC50 in the data set on sodium channel fell in the range of 100 to 1000 nM.

`CCCNC(=O)CN1C(=O)C2(COc3cc4c(cc32)CCO4)c2ccccc21` (stereo not drawn) [Example 12.51, 2-(2′-oxo-5,6-dihydrospiro[benzo[1,2-b:5,4-b′]difuran-3,3′-indol]-1′(2′H)-yl)-N-propylacetamide] came in with a melting point of 207 to 209 °C. On CYP3A4, the inhibition at 10 µM is greater than 50%. Besides, the IC50 in the data set with sodium channel is 100 to 1000 nM.

`CN(C(=O)CN1C(=O)C2(COc3cc4c(cc32)CCO4)c2ccccc21)c1ccccc1` (stereo not drawn) [Example 12.52, N-methyl-2-(2′-oxo-5,6-dihydrospiro[benzo[1,2-b:5,4-b′]difuran-3,3′-indol]-1′(2′H)-yl)-N-phenylacetamide] showed a melting point of 234 to 238 °C. Moreover, the inhibition at 10 µM on CYP3A4 was greater than 50%. The IC50 in the data set with sodium channel is 100 to 1000 nM.

`Cc1ccc(C)c(NC(=O)CN2C(=O)C3(COc4cc5c(cc43)CCO5)c3ccccc32)c1` (stereo not drawn) [Example 12.53, N-(2,5-dimethylphenyl)-2-(2′-oxo-5,6-dihydrospiro[benzo[1,2-b:5,4-b′]difuran-3,3′-indol]-1′(2′H)-yl)acetamide] had a melting point of 250 to 252 °C. Also, the inhibition at 10 µM at CYP3A4 is less than 50%. Also, the IC50 in the data set with sodium channel was 1000 to 10000 nM.

With `Cc1ccc(NC(=O)CN2C(=O)C3(COc4cc5c(cc43)CCO5)c3ccccc32)c(C)c1` (stereo not drawn) [Example 12.54, N-(2,4-dimethylphenyl)-2-(2′-oxo-5,6-dihydrospiro[benzo[1,2-b:5,4-b′]difuran-3,3′-indol]-1′(2′H)-yl)acetamide], the melting point was 277 to 279 °C. Moreover, on CYP3A4, the inhibition at 10 µM is greater than 50%. In addition, the half-inhibitory concentration (IC50) in the data set on sodium channel was 1000 to 10000 nM.

`Cc1cccc(NC(=O)CN2C(=O)C3(COc4cc5c(cc43)CCO5)c3ccccc32)c1C` (stereo not drawn) [Example 12.55, N-(2,3-dimethylphenyl)-2-(2′-oxo-5,6-dihydrospiro[benzo[1,2-b:5,4-b′]difuran-3,3′-indol]-1′(2′H)-yl)acetamide] showed a melting point of 251 to 253 °C. Moreover, the inhibition at 10 µM on CYP3A4 was greater than 50%. The IC50 in the data set on sodium channel lay within 1000 to 10000 nM.

`Cc1cccc(C)c1NC(=O)CN1C(=O)C2(COc3cc4c(cc32)CCO4)c2ccccc21` (stereo not drawn) [Example 12.56, N-(2,6-dimethylphenyl)-2-(2′-oxo-5,6-dihydrospiro[benzo[1,2-b:5,4-b′]difuran-3,3′-indol]-1′(2′H)-yl)acetamide] showed a melting point of 261 to 262 °C. Further, at CYP3A4, the inhibition at 10 µM is greater than 50%. For the same compound, the IC50 with sodium channel fell in the range of 1000 to 10000 nM.

In the case of `CNC(=O)c1cc(CN2C(=O)C3(COc4cc5c(cc43)OCO5)c3ccccc32)oc1C(F)(F)F` (stereo not drawn) [Example 12.57, N-methyl-5-[(2′-oxospiro[furo[2,3-f][1,3]benzodioxole-7,3′-indol]-1′(2′H)-yl)methyl]-2-(trifluoromethyl)furan-3-carboxamide], the melting point fell in the range of 202 to 203 °C. For the same compound, the inhibition at 10 µM at CYP3A4 is greater than 50%. In the data set on sodium channel, the IC50 fell in the range of 100 to 1000 nM.

In the case of `NC(=O)c1cc(CN2C(=O)C3(COc4cc5c(cc43)OCO5)c3ccccc32)oc1C(F)(F)F` (stereo not drawn) [Example 12.58, 5-[(2′-oxospiro[furo[2,3-f][1,3]benzodioxole-7,3′-indol]-1′(2′H)-yl)methyl]-2-(trifluoromethyl)furan-3-carboxamide], the melting point was 172 to 174 °C. Moreover, at CYP3A4, the inhibition at 10 µM is greater than 50%. Also, in the data set on sodium channel, the IC50 lay within 1 to 100 nM.

`CN(C)C(=O)c1cc(CN2C(=O)C3(COc4cc5c(cc43)OCO5)c3ccccc32)oc1C(F)(F)F` (stereo not drawn) [Example 12.59, N,N-dimethyl-5-[(2′-oxospiro[furo[2,3-f][1,3]benzodioxole-7,3′-indol]-1′(2′H)-yl)methyl]-2-(trifluoromethyl)furan-3-carboxamide] had a melting point of 96 to 98 °C. On CYP3A4, the inhibition at 10 µM is greater than 50%. Moreover, the IC50 in the data set on sodium channel was in the range of 100 to 1000 nM.

Compound `NC(=O)c1ccc(CN2C(=O)C3(COc4cc5c(cc43)OCCO5)c3ccccc32)cc1` (stereo not drawn) [Example 12.60, 4-[(2′-oxo-2,3-dihydrospiro[furo[2,3-g][1,4]benzodioxine-8,3′-indol]-1′(2′H)-yl)methyl]benzamide] came in with a melting point of 236 to 238 °C. On CYP3A4, the inhibition at 10 µM is greater than 50%. In addition, the concentration for half-maximal inhibition (IC50) in the data set with sodium channel lay in the range of 1 to 100 nM.

The compound `NC(=O)c1cccc(CN2C(=O)C3(COc4cc5c(cc43)OCCO5)c3ccccc32)c1` (stereo not drawn) [Example 12.61, 3-[(2′-oxo-2,3-dihydrospiro[furo[2,3-g][1,4]benzodioxine-8,3′-indol]-1′(2′H)-yl)methyl]benzamide] yielded a melting point of 130 to 135 °C. For the same compound, the inhibition at 10 µM at CYP3A4 is greater than 50%. The concentration for half-maximal inhibition (IC50) with sodium channel was 100 to 1000 nM.

Take `CN(C)C(=O)c1cccc(CN2C(=O)C3(COc4cc5c(cc43)OCCO5)c3ccccc32)c1` (stereo not drawn) [Example 12.62, N,N-dimethyl-3-[(2′-oxo-2,3-dihydrospiro[furo[2,3-g][1,4]benzodioxine-8,3′-indol]-1′(2′H)-yl)methyl]benzamide]: the melting point was 90 to 96 °C. Also, the inhibition at 10 µM on CYP3A4 was greater than 50%. The IC50 in the data set on sodium channel lay in the range of 100 to 1000 nM.

Regarding `O=C(Nc1ccccc1F)c1ccc(CN2C(=O)C3(COc4cc5c(cc43)OCCO5)c3ccccc32)cc1` (stereo not drawn) [Example 12.65, N-(2-fluorophenyl)-4-[(2′-oxo-2,3-dihydrospiro[furo[2,3-g][1,4]benzodioxine-8,3′-indol]-1′(2′H)-yl)methyl]benzamide], the melting point was in the range of 245 to 251 °C. Moreover, on CYP3A4, the inhibition at 10 µM was less than 50%. For the same compound, the 50% inhibitory concentration (IC50) in the data set on sodium channel is 100 to 1000 nM.

Compound `O=C(CN1C(=O)C2(COc3cc4c(cc32)OCCO4)c2ccccc21)Nc1ccccc1F` (stereo not drawn) [Example 13.7, N-(2-fluorophenyl)-2-(2′-oxo-2,3-dihydrospiro[furo[2,3-g][1,4]benzodioxine-8,3′-indol]-1′(2′H)-yl)acetamide] displayed a melting point of 117 to 119 °C. In addition, the inhibition at 10 µM on CYP3A4 was less than 50%. For the same compound, the 50% inhibitory concentration (IC50) with sodium channel fell in the range of 1 to 100 nM.

As to `O=C(NCCCN1C(=O)C2(COc3cc4c(cc32)CCO4)c2ccccc21)c1ccccc1OC(F)(F)F` (stereo not drawn) [Example 13.11, N-[3-(2′-oxo-5,6-dihydrospiro[benzo[1,2-b:5,4-b′]difuran-3,3′-indol]-1′(2′H)-yl)propyl]-2-(trifluoromethoxy)benzamide], the melting point is 65 to 70 °C. On CYP3A4, the inhibition at 10 µM was greater than 50%. Moreover, in the data set with sodium channel, the half-inhibitory concentration (IC50) is 100 to 1000 nM.

Turning to `C[C@H](O)CN1C(=O)C2(COc3cc4c(cc32)CCO4)c2ccccc21` (stereo partly drawn) [Example 14, 1′-[(2S)-2-hydroxypropyl]-5,6-dihydrospiro[benzo[1,2-b:5,4-b′]difuran-3,3′-indol]-2′(1′H)-one], the melting point lay in the range of 171 to 174 °C. Also, the inhibition at 10 µM on CYP3A4 is less than 50%. Besides, the half-inhibitory concentration (IC50) in the data set with sodium channel was in the range of 100 to 1000 nM.

`C[C@@H](CN1C(=O)C2(COc3cc4c(cc32)CCO4)c2ccccc21)OCc1ccccc1` (stereo partly drawn) [Example 14.1, 1′-[(2S)-2-(benzyloxy)propyl]-5,6-dihydrospiro[benzo[1,2-b:5,4-b′]difuran-3,3′-indol]-2′(1′H)-one]: the melting point is 45 to 47 °C. In addition, the inhibition at 10 µM at CYP3A4 is greater than 50%. Further, the 50% inhibitory concentration (IC50) in the data set on sodium channel was in the range of 100 to 1000 nM.

The compound `C[C@@H](CN1C(=O)C2(COc3cc4c(cc32)CCO4)c2ccccc21)OCc1ccc(F)cc1` (stereo partly drawn) [Example 14.2, 1′-{(2S)-2-[(4-fluorobenzyl)oxy]propyl}-5,6-dihydrospiro[benzo[1,2-b:5,4-b′]difuran-3,3′-indol]-2′(1′H)-one] displayed a melting point of 55 to 60 °C. Besides, the inhibition at 10 µM on CYP3A4 was greater than 50%. The half-inhibitory concentration (IC50) in the data set on sodium channel fell in the range of 100 to 1000 nM.

For the compound `C[C@@H](CN1C(=O)C2(COc3cc4c(cc32)CCO4)c2ccccc21)OCc1ccccn1` (stereo partly drawn) [Example 14.3, 1′-[(2S)-2-(pyridin-2-ylmethoxy)propyl]-5,6-dihydrospiro[benzo[1,2-b:5,4-b′]difuran-3,3′-indol]-2′(1′H)-one], the melting point fell in the range of 46 to 54 °C. On CYP3A4, the inhibition at 10 µM is greater than 50%. For the same compound, in the data set with sodium channel, the half-inhibitory concentration (IC50) was 1000 to 10000 nM.

`CC(O)CCN1C(=O)C2(COc3cc4c(cc32)CCO4)c2ccccc21` (stereo not drawn) [Example 14.4, 1′-(3-hydroxybutyl)-5,6-dihydrospiro[benzo[1,2-b:5,4-b′]difuran-3,3′-indol]-2′(1′H)-one] displayed a melting point of 64 to 66 °C. Besides, the inhibition at 10 µM at CYP3A4 is less than 50%. Besides, the 50% inhibitory concentration (IC50) in the data set on sodium channel was in the range of 100 to 1000 nM.

Usually inhibition stands for the percentage by which the read-out fell short of the control. In general, IC50 refers to the midpoint of a concentration-inhibition curve. What is called melting point is the temperature, or range, at which the solid turns liquid.
